Entries after “also recorded” stand apart in the source; their conditions may differ. Like-named read-outs stand apart in the source and are kept apart here.
Assays:
[1] = tested on: RBE cholangiocarcinoma cells; experiment: Stress-focused drug screen of 164 compounds with or without LB-100; assay type: cell-based; settings: stress-focused screen with LB-100 vs control (FIG. 5A)
Excerpt: (§1) To identify stress-targeted drugs that can be combined with LB-100 to kill cancer cells, a library of 164 compounds was built targeting the different stress responses associated with a malignant phenotype (i.e., proteotoxic stress, oxidative stress, DNA damage stress, mitotic stress, metabolic stress, and apoptosis evasion). These compounds were investigated in 15 different concentrations using a literature-based concentration range in order to obtain dose-response curves for each of these drugs.

SW-480 cells = experiment: as above; assay type: cell-based; settings: 2.5 µM LB-100 (sub-lethal); cell viability after three days; 15 concentrations (FIG. 2B)
Excerpt: as §1

HT-29 cells = experiment: as above; assay type: cell-based; settings: 2.5 µM LB-100 (sub-lethal); cell viability after three days (FIG. 2C)
Excerpt: These compounds were investigated in 15 different concentrations using a literature-based concentration range in order to obtain dose-response curves for each of these drugs.

[2] = tested on: colorectal cancer cell lines; assay type: cell-based; settings: for toxicity when combined with LB-100, long-term cell proliferation: SW-480 cells, multiple concentrations, 10-14 days (FIG. 2F)
Experimental: Finally, plates were scanned and stored.
(§2) Then the cell viability was measured using resazurin.

[3] = tested on: cholangiocarcinoma (CCA) cell lines; experiment: Short-term cell viability dose-response assay (resazurin); assay type: cell-based; settings: 120 h, read-out: IC50s from dose-response curves
Excerpt: (§3) The efficacy of the LB-100/adavosertib combination in the CRC cell lines encouraged further evaluation in other tumor types lacking effective treatment options. Pancreatic ductal adenocarcinomas (PDACs) are refractory to conventional therapies and the 5-year survival rates remain one of the lowest among all cancers. Similarly, despite a much lower overall incidence, cholangiocarcinomas (CCAs) share with PDACs the frequent lack of response to conventional therapies and the dismal prognosis. A panel of four PDAC cell lines and a similar one with CCA cells were assembled to assess the efficacy of LB-100 and adavosertib in these cancer types. […] To investigate the effects of the combination in the PDAC and CCA cancer cell lines systematically, the same experimental workflow used for the CRC panel was employed. First, the long-term toxicity of LB-100 and adavosertib was addressed in the PDAC and CAA cell lines (FIG. 5D and FIG. 8C). […] As observed for DiFi and RKO, the doses of adavosertib used in the synergy assays are already toxic to AspC-1, EGI, and HuCC-T1 cells (FIG. 5C, FIG. 8A, and FIG. 8B).

[4] = tested on: pancreatic ductal adenocarcinoma (PDAC) cell lines; experiment: as above; assay type: cell-based; settings: 120 h, read-out: IC50s from dose-response curves
Excerpt: as §3

[5] = tested on: colorectal cancer cell lines; experiment: cells
Experimental: Drug-response assays were performed in triplicate, using black-walled 384-well plates. Cells were plated with a 20% density (approximately) and incubated for approximately 24 hours to allow attachment to the plate. […] 10 µM phenylarsine oxide was used as positive control (0% cell viability) and DMSO was used as negative control (100% cell viability). 3-5 days later, culture medium was removed and resazurin was added to the plates. After 1-4 hours incubation (depending on the cell line), fluorescence (560Ex/590Em) was recorded using the EnVision (Perkin Elmer).
The effect of increasing doses of LB-100 to the Table 1 cell lines, both in short-term cell viability assays (FIG. 1A) and long-term cell proliferation assays (FIG. 1B), was analyzed. For the short-term study, cells were cultured with increasing concentrations of LB-100 for 5 days. Then the cell viability was measured using resazurin.
Adavosertib was used as the WEE1 kinase inhibitor to investigate the effect of the combination with LB-100 in the panel of CRC cells. […] Toxicity of the combination in long-term viability assays was assessed. The cells were cultured for at least ten days and the drugs were refreshed every other day. The toxicity of the single drugs in this experimental setup was assessed. […] Cells were then treated at the indicated conditions and confluence over time was measured by IncuCyte®, FIG. 3D).

[6] = tested on: mitogenic signaling pathways and stress response pathways; experiment: Time-course Western blots; assay type: cell-based; settings: DiFi, HT-29 and SW-480 cells; vinculin control (FIG. 1C-1E)
Experimental: After the indicated culture period and drug treatment, cells were washed with cold PBS, then lysed with RIPA buffer (25 mM Tris-HCl, pH 7.6, 150 mM NaCl, 1% NP-40, 1% sodium deoxycholate, 0.1% SDS) containing Complete Protease Inhibitor cocktail and phosphatase inhibitor cocktails II and III. Samples were then centrifuged for 10 min at 15,000 x g at 4° C. and supernatant was collected. Protein concentration of the samples was normalized after performing a Bicinchoninic Acid (BCA) assay. Protein samples (denatured with DTT followed by 5 min heating at 95° C.) were then loaded in a 4-12% polyacrylamide gel. Gels were run (SDS-PAGE) for approximately 45 min at 175 volts. Proteins were transferred from the gel to a polyvinylidene fluoride (PVDF) membrane at 330 mA for 90 min. After the transfer, membranes were incubated in blocking solution (5% bovine serum albumin (BSA) in PBS with 0.1% Tween-20 (PBS-T)). Subsequently, membranes were probed with primary antibody in blocking solution (1:1000) overnight at 4° C. Membranes were then washed 3 times for 10 min with PBS-T, followed by 1 h incubation at room temperature with the secondary antibody (HRP conjugated, 1:10,000) in blocking solution. […]
as §2

Question: Which results are given for `N[C@@H]1CCCN(c2c(Br)cnc3[nH]cc(NC(=O)C4CC4)c23)C1` [GDC-0575]?
Answer: increased drug efficacy in the presence of LB-100 (normalized AUC) [1]: among the top 5% in increased drug efficacy; toxicity in the presence of LB-100 vs control (normalized AUC) (SW-480 cells): among the bottom 5% normalized AUCs; toxicity in the presence of LB-100 vs control (normalized AUC) (HT-29 cells): LB-100 increased the toxicity

Question: With `CN(C)CC#Cc1ccc(OCCCc2sc(N3CCc4cccc(C(=O)Nc5nc6ccccc6s5)c4C3)nc2C(=O)O)c(F)c1` [Compound A-1155463] as the compound, how does the “toxicity when combined with LB-100, long-term cell proliferation” value (from here on “toxicity when combined”) [2] read?
Answer: increased toxicity

Question: What about the “toxicity in the presence of LB-100 vs control (normalized AUC)” value (from here on “toxicity … vs control (normalized AUC)”) (SW-480 cells) of the same compound?
Answer: increased in the presence of LB-100

Question: For `Cc1cnc(NC(=O)Nc2cc(Br)c(C)cc2OC[C@@H]2CNCCO2)cn1` [rabusertib], which “increased drug efficacy in the presence of LB-100 (normalized AUC)” value (“increased drug efficacy … (normalized AUC)” for short) [1] is on record?
Answer: among the top 5% in increased drug efficacy

Question: What about the “toxicity … vs control (normalized AUC)” value (SW-480 cells) of the same compound?
Answer: among the bottom 5% normalized AUCs; also recorded: increased toxicity

Question: With `CNCc1ccc(-c2cc(-c3nc(-c4ccc(S(=O)(=O)C(C)C)cc4)cnc3N)on2)cc1` [berzosertib] as the compound, how does the “increased drug efficacy … (normalized AUC)” value [1] read?
Answer: among the top 5% in increased drug efficacy

Question: Which results are given for `Cn1cc(-c2cnn3c(N)c(Br)c([C@@H]4CCCNC4)nc23)cn1` [SCH-900776]?
Answer: increased drug efficacy in the presence of LB-100 (normalized AUC) [1]: among the top 5% in increased drug efficacy; toxicity in the presence of LB-100 vs control (normalized AUC) (HT-29 cells): increased toxicity

Question: Which “toxicity … vs control (normalized AUC)” value (HT-29 cells) does the source give for `N#Cc1cnc(Nc2cc(NC[C@H]3CNCCO3)c(C(F)(F)F)cn2)cn1` [CCT-245737] here?
Answer: increased toxicity

Question: `CCN(CC)CCOc1ccc(Nc2ncc3cc(-c4c(Cl)cccc4Cl)c(=O)n(C)c3n2)cc1` [PD0166285] was tested. Which “toxicity … vs control (normalized AUC)” value (SW-480 cells) did it give?
Answer: among the bottom 5% normalized AUCs

Question: How did the IC50 [3] turn out when `CN1CCN(C(=O)[C@@H]2[C@H](C(=O)O)[C@H]3CC[C@@H]2O3)CC1` (racemic) [LB-100] was run?
Answer: ≥ 4700 nM

Question: What about the IC50 [4] of the same compound?
Answer: ≥ 3200 nM

Question: What about the “cytotoxicity, short-term cell viability” value [5] of the same compound?
Answer: moderate toxicity in the lower micro molar range

Question: What about the “cytotoxicity, long-term cell proliferation” value [2] of the same compound?
Answer: moderate toxicity in the lower micro molar range

Question: What about the “activation of mitogenic signaling and stress response pathways” value [6] of the same compound?
Answer: activates mitogenic signaling pathways and engages stress response pathways

Question: How did the IC50 ([3]; range across CCA cell lines, 5 days, resazurin (FIG. 5C)) turn out when `C=CCn1c(=O)c2cnc(Nc3ccc(N4CCN(C)CC4)cc3)nc2n1-c1cccc(C(C)(C)O)n1` [adavosertib] was run?
Answer: 100 to 370 nM

Question: What about the IC50 ([4]; range across four PDAC cell lines, 5 days, resazurin (FIG. 8A, 8B)) of the same compound?
Answer: 300 to 1700 nM

Question: And the IC50 ([5]; 120 h, read-out: IC50s from dose-response curves)?
Answer: 180 to 1000 nM

Question: And the “tolerance to single drug, long-term viability” value ([2]; DLD1, HCT-116 and SW-480 cells (FIG. 3C))?
Answer: largely tolerant to up to 500 nM

Question: What about the “toxicity when combined” value [2] of the same compound?
Answer: increased toxicity

Question: And the “increased drug efficacy … (normalized AUC)” value [1]?
Answer: among the top 5% in increased drug efficacy

Question: What about the “toxicity … vs control (normalized AUC)” value (SW-480 cells) of the same compound?
Answer: among the bottom 5% normalized AUCs

Question: And the “toxicity … vs control (normalized AUC)” value (HT-29 cells)?
Answer: LB-100 increased the toxicity

Question: For `CC1(C)CCC(c2ccc(Cl)cc2)=C(CN2CCN(c3ccc(C(=O)NS(=O)(=O)c4ccc(N[C@H](CCN5CCOCC5)CSc5ccccc5)c(S(=O)(=O)C(F)(F)F)c4)cc3)CC2)C1` [navitoclax], which “toxicity … vs control (normalized AUC)” value (SW-480 cells) is on record?
Answer: increased in the presence of LB-100

Question: Which “toxicity when combined” value [2] does the source give for `COc1cccc(OCCCN)c1-c1cc(Nc2cnc(C#N)cn2)n[nH]1` [prexasertib] here?
Answer: increased toxicity

Question: What about the “increased drug efficacy … (normalized AUC)” value [1] of the same compound?
Answer: among the top 5% in increased drug efficacy

Question: And the “toxicity … vs control (normalized AUC)” value (SW-480 cells)?
Answer: among the bottom 5% normalized AUCs; also recorded: increased toxicity

Reference: patent US20230310418A1, “COMPOSITIONS AND METHODS FOR TREATING CANCER OR PREVENTING, INHIBITING OR REDUCING RISK OF METASTASIS OF A CANCER” (Lixte Biotechnology, Inc., priority 2022, published 2023)
